We go through 54 compounds from a flash point compilation (Sun et al. 2020).

SMILES strings stand for the structures.

As for `C#[C][Sn]([CH2]CCC)([CH2]CCC)[CH2]CCC` [ETHYNYLTRI-n-BUTYLTIN], the flash point was found to be 73.00 °C.

Turning to `CCC[CH2][Sn]([CH2]CCC)([CH2]CCC)[c]1ccccc1` [PHENYLTRI-n-BUTYLTIN], the flash point came to 107.00 °C.

For `CCC[CH2][Sn]([CH2]CCC)([CH2]CCC)[CH2]CCC` [TETRA-n-BUTYLTIN], the flash point stood at 107.00 °C.

Compound `CCCCCCC[CH2][Sn]([CH2]CCCCCCC)([CH2]CCCCCCC)[CH2]CCCCCCC` [TETRA-n-OCTYLTIN] registered a flash point of 94.00 °C.

With `[CH3][Sn]([CH3])([CH3])[CH3]` [TETRAMETHYLTIN], the flash point is -12.00 °C.

With `c1cc[c]([Sn]([c]2ccccc2)([c]2ccccc2)[c]2ccccc2)cc1` [TETRAPHENYLTIN], the flash point turned out to be 231.00 °C.

`CCC[CH2][Sn]([Cl])([CH2]CCC)[CH2]CCC` [TRI-n-BUTYLCHLOROTIN]: the flash point was found to be 120.00 °C.

With `CCC[CH2][Sn]([CH2]CCC)([CH2]CCC)[O]CC` [TRI-n-BUTYLETHOXYTIN], the flash point was 104.00 °C.

`CCC[CH2][Sn]([I])([CH2]CCC)[CH2]CCC` [TRI-n-BUTYLIODOTIN] had a flash point of 113.00 °C.

`CCC[CH2][SnH]([CH2]CCC)[CH2]CCC` [TRI-n-BUTYLTIN HYDRIDE] yielded a flash point of 40.00 °C.

With `C1CC[CH]([SnH]([CH]2CCCCC2)[CH]2CCCCC2)CC1` [TRICYCLOHEXYLTIN HYDRIDE], the flash point amounted to 105.00 °C.

Take `[CH3][Sn]([CH3])([CH3])[Cl]` [TRIMETHYLCHLOROTIN]: the flash point came out at 97.00 °C.

As to `CCC[CH2][Sn]([CH2]CCC)([CH2]CCC)[C](C)(C)C` [t-BUTYLTRI n-BUTYLTIN], the flash point amounted to 102.00 °C.

This is another data set of the same source.
For `CO[Si](CCCNCCN)(OC)OC` [Aminoethylaminopropyltrimethoxysilane], the flash point is 96 °C.

As for `C[Si](C)(C)N=C=N[Si](C)(C)C` [Bis(trimethylsilyl)carbodiimide], the flash point is 42 °C.

Take `CN(C(=O)C(F)(F)F)[Si](C)(C)C` [N-Methyl-N-trimethylsilyltrifluoroacetamide]: the flash point came to 25 °C.

For `CC[Si](CC)(CC)CC` [Tetraethylsilane], the flash point came out at 26 °C.

Consider `C[Si](C)(C)OB(O[Si](C)(C)C)O[Si](C)(C)C` [Tris(trimethylsiloxy)boron], for which the flash point came to 42 °C.

Turning to `C=C[Si](C)(C)O[Si](C)(C)C` [Vinylpentamethyldisiloxane], the flash point is 12 °C.

This is another data set of the same source.
In the case of `C=C[CH2][Ge]([Cl])([Cl])[Cl]` [ALLYLTRICHLOROGERMANE], the flash point amounted to 55.00 °C.

Regarding `C=C[CH2][Ge]([CH2]C)([CH2]C)[CH2]C` [ALLYLTRIETHYLGERMANE], the flash point worked out at 48.00 °C.

Regarding `[CH3][Ge]([CH3])([CH3])[CH](Cl)Cl` [DICHLOROMETHYLTRIMETHYLGERMANE], the flash point turned out to be 33.00 °C.

The compound `C[CH2][Ge]([Cl])([Cl])[CH2]C` [DIETHYLDICHLOROGERMANE] returned a flash point of 52.00 °C.

As to `C[N](C)[Ge]([CH3])([CH3])[CH3]` [DIMETHYLAMINOTRIMETHYLGERMANE], the flash point was -10.00 °C.

`CC[O][Ge]([CH3])([O]CC)[O]CC` [METHYLTRIETHOXYGERMANE] gave a flash point of 40.00 °C.

As to `CCC[CH2][Ge]([CH2]CCC)([CH2]CCC)[CH2]CCC` [TETRA-n-BUTYLGERMANE], the flash point came to 90.00 °C.

`C=C[CH2][Ge]([CH2]C=C)([CH2]C=C)[CH2]C=C` [TETRAALLYLGERMANE]: the flash point was determined as 70.00 °C.

`CC[O][Ge]([O]CC)([O]CC)[O]CC` [TETRAETHOXYGERMANE] gave a flash point of 62.00 °C.

Compound `CC(C)[O][Ge]([O]C(C)C)([O]C(C)C)[O]C(C)C` [TETRAISOPROPOXYGERMANE] showed a flash point of 68.00 °C.

Consider `[CH3][Ge]([CH3])([CH3])[CH3]` [TETRAMETHYLGERMANE], for which the flash point was -19.00 °C.

For the compound `CCC[CH2][Ge]([Cl])([CH2]CCC)[CH2]CCC` [TRI-n-BUTYLCHLOROGERMANE], the flash point was 94.00 °C.

In turn, `CCC[CH2][GeH]([CH2]CCC)[CH2]CCC` [TRI-n-BUTYLGERMANE] gave a flash point of 78.00 °C.

On to `[Cl][GeH]([Cl])[Cl]` [TRICHLOROGERMANE], for which the flash point came to 12.00 °C.

`C[CH2][Ge]([Cl])([CH2]C)[CH2]C` [TRIETHYLCHLOROGERMANE] had a flash point of 38.00 °C.

Compound `C[CH2][GeH]([CH2]C)[CH2]C` [TRIETHYLGERMANE] had a flash point of 5.00 °C.

`C[CH](C)[Ge]([Cl])([CH](C)C)[CH](C)C` [TRIISOPROPYLCHLOROGERMANE] gave a flash point of 66.00 °C.

In the case of `[CH3][Ge]([CH3])([CH3])[Cl]` [TRIMETHYLCHLOROGERMANE], the flash point turned out to be 1.00 °C.

For `CCC[CH2][Ge]([Cl])([Cl])[Cl]` [n-BUTYLTRICHLOROGERMANE], the flash point stood at 82.00 °C.

The source holds these as a separate data set.
Consider `CC(=O)OCCC[Si](C)(Cl)Cl` [3-ACETOXYPROPYLMETHYLDICHLOROSILANE], for which the flash point worked out at 85.00 °C.

For the compound `CO[Si](CCCOC(C)=O)(OC)OC` [3-ACETOXYPROPYLTRIMETHOXYSILANE], the flash point is 93.00 °C.

The compound `CCO[Si](C)(C)CCCN` [3-AMINOPROPYLDIMETHYLETHOXYSILANE] had a flash point of 73.00 °C.

`CCO[Si](CCCCN)(OCC)OCC` [4-AMINOBUTYLTRIETHOXYSILANE] yielded a flash point of 109.00 °C.

In turn, `CCO[Si](CCCCCCS(=O)(=O)N=[N+]=[N-])(OCC)OCC` [6-AZIDOSULFONYLHEXYLTRIETHOXYSILANE] yielded a flash point of 114.00 °C.

Consider `CC(=O)OCC[Si](Cl)(Cl)Cl` [ACETOXYETHYLTRICHLOROSILANE], for which the flash point was found to be 82.00 °C.

In the case of `CC(=O)OC[Si](C)(C)C` [ACETOXYMETHYLTRIMETHYLSILANE], the flash point is 20.00 °C.

Consider `C=CC(=O)O[Si](C)(C)C` [ACRYLOXYTRIMETHYLSILANE], for which the flash point is 26.00 °C.

As for `C=CC[Si](C)(C)N(C(C)C)C(C)C` [ALLYLDIMETHYL(DIISOPROPYLAMINO)SILANE], the flash point was 62.00 °C.

In turn, `C=CC[SiH](C)C` [ALLYLDIMETHYLSILANE] displayed a flash point of -20.00 °C.

As to `C=CC[Si](O[Si](C)(C)C)(O[Si](C)(C)C)O[Si](C)(C)C` [ALLYLTRIS(TRIMETHYLSILOXY)SILANE], the flash point is 67.00 °C.

As to `C[Si](C)(C)CN` [AMINOMETHYLTRIMETHYLSILANE], the flash point came to 9.00 °C.

The compound `C[SiH](C)Cc1ccccc1` [BENZYLDIMETHYLSILANE] had a flash point of 65.00 °C.

Compound `CO[Si](C)(CCCNCCN)OC` [N-(2-AMINOETHYL)-3-AMINOPROPYLMETHYLDIMETHOXYSILANE] displayed a flash point of 90.00 °C.

Compound `C[Si](C)(C)CNCc1ccccc1` [N-BENZYLAMINOMETHYLTRIMETHYLSILANE] had a flash point of 116.00 °C.

`CO[Si](OC)(OC)c1ccc(N)cc1` [p-AMINOPHENYLTRIMETHOXYSILANE] showed a flash point of 180.00 °C.

The source holds these as a separate data set.
In the case of `CC[Si](CC)(CC)CC` [Tetraethylsilane], the flash point was found to be 32.00 °C.
